# Test results: patent US7323469B2, “7H-pyrrolo[2,3-d]pyrimidine derivatives” (Novartis AG, priority 2001, dated 2008)
row,melting point [°C],Compound
1,272 to 273,"CN(C)CC(=O)NCc1cccc(-c2cc3c(Nc4ccc(F)c(Cl)c4)ncnc3[nH]2)c1 [Example 64, N-{3-[4-(3-Chloro-4-fluoro-phenylamino)-7H-pyrrolo[2,3-d]pyrimidin-6-yl]-benzyl}-2-dimethylamino-acetamide]"
2,214,"CN1CCN(CC(=O)NCc2cccc(-c3cc4c(Nc5ccc(F)c(Cl)c5)ncnc4[nH]3)c2)CC1 [Example 65, N-{3-[4-(3-Chloro-4-fluoro-phenylamino)-7H-pyrrolo[2,3-d]pyrimidin-6-yl]-benzyl}-2-(4-methyl-piperazin-1-yl)-acetamide]"
3,252 to 254,"O=C(CN1CCCCC1)NCc1cccc(-c2cc3c(Nc4ccc(F)c(Cl)c4)ncnc3[nH]2)c1 [Example 66, N-{3-[4-(3-Chloro-4-fluoro-phenylamino)-7H-pyrrolo[2,3-d]pyrimidin-6-yl]-benzyl}-2-piperidin-1-yl-acetamide]"
4,256 to 258,"Cc1ccc(Nc2ncnc3[nH]c(-c4cccc(CN5CCN(C)CC5)c4)cc23)cc1O [Example 67, 2-Methyl-5-{6-[3-(4-methyl-piperazin-1-ylmethyl)-phenyl]-7H-pyrrolo[2,3-d]pyrimidin-4-ylamino}-phenol]"
5,251 to 252,"COc1ccc(Nc2ncnc3[nH]c(-c4cccc(CN5CCN(C)CC5)c4)cc23)cc1O [Example 69, 2-Methoxy-5-{6-[3-(4-methyl-piperazin-1-ylmethyl)-phenyl]-7H-pyrrolo[2,3-d]pyrimidin-4-ylamino}-phenol]"
6,> 300,"Cc1ccc(Nc2ncnc3[nH]c(-c4ccc(CN5CCN(C)CC5)cc4)cc23)cc1O [Example 72, 2-Methyl-5-{6-[4-(4-methyl-piperazin-1-ylmethyl)-phenyl]-7H-pyrrolo[2,3-d]pyrimidin-4-ylamino}-phenol]"
7,232 to 233,"C[C@@H](Nc1ncnc2[nH]c(-c3ccc(CN4CCN(C)CC4)cc3)cc12)c1ccc(Cl)cc1 [Example 77, [(R)-1-(4-Chloro-phenyl)-ethyl]-{6-[4-(4-methyl-piperazin-1-ylmethyl)-phenyl]-7H-pyrrolo[2,3-d]pyrimidin-4-yl}-amine]"
8,241 to 243,"CCN1CCN(Cc2ccc(-c3cc4c(NCc5cccc(Cl)c5)ncnc4[nH]3)cc2)CC1 [Example 83, (3-Chloro-benzyl)-{6-[4-(4-ethyl-piperazin-1-ylmethyl)-phenyl]-7H-pyrrolo[2,3-d]pyrimidin-4-yl}-amine]"
9,222 to 225,"Clc1cccc(CNc2ncnc3[nH]c(-c4ccc(CN5CCCC5)cc4)cc23)c1 [Example 88, (3-Chloro-benzyl)-[6-(4-pyrrolidin-1-ylmethyl-phenyl)-7H-pyrrolo[2,3-d]pyrimidin-4-yl]-amine]"
10,235 to 237,"CN1CCN(Cc2ccc(-c3cc4c(NCc5cccc(Cl)c5)ncnc4[nH]3)cc2)CC1 [Example 89, (3-Chloro-benzyl)-{6-[4-(4-methyl-piperazin-1-ylmethyl)-phenyl]-7H-pyrrolo[2,3-d]pyrimidin-4-yl}-amine]"
11,255 to 256,"CCN1CCN(Cc2ccc(-c3cc4c(NCc5ccccc5Cl)ncnc4[nH]3)cc2)CC1 [Example 91, (2-Chloro-benzyl)-{6-[4-(4-ethyl-piperazin-1-ylmethyl)-phenyl]-7H-pyrrolo[2,3-d]pyrimidin-4-yl}-amine]"
12,249 to 251,"CCN1CCN(Cc2ccc(-c3cc4c(NCc5cc(Cl)ccc5Cl)ncnc4[nH]3)cc2)CC1 [Example 97, (2,5-Dichloro-benzyl)-{6-[4-(4-ethyl-piperazin-1-ylmethyl)-phenyl]-7H-pyrrolo[2,3-d]pyrimidin-4-yl}-amine]"
13,244 to 246,"CN1CCN(Cc2ccc(-c3cc4c(NCc5cc(Cl)ccc5Cl)ncnc4[nH]3)cc2)CC1 [Example 102, (2,5-Dichloro-benzyl)-{6-[4-(4-methyl-piperazin-1-ylmethyl)-phenyl]-7H-pyrrolo[2,3-d]pyrimidin-4-yl)-amine]"
14,220 to 222,"COc1cccc(CNc2ncnc3[nH]c(-c4ccc(CN5CCCC5)cc4)cc23)c1 [Example 106, (3-Methoxy-benzyl)-[6-(4-pyrrolidin-1-ylmethyl-phenyl)-7H-pyrrolo[2,3-d]pyrimidin-4-yl]-amine]"
15,227 to 229,"COc1cccc(CNc2ncnc3[nH]c(-c4ccc(CN5CCCCC5)cc4)cc23)c1 [Example 107, (3-Methoxy-benzyl)-[6-(4-piperidin-1-ylmethyl-phenyl)-7H-pyrrolo[2,3-d]pyrimidin-4-yl]-amine]"
16,263 to 265,"COc1cccc(CNc2ncnc3[nH]c(-c4ccc(CN5CCOCC5)cc4)cc23)c1 [Example 107a, (3-Methoxy-benzyl)-[6-(4-morpholin-4-ylmethyl-phenyl)-7H-pyrrolo[2,3-d]pyrimidin-4-yl]-amine]"
17,225 to 227,"COc1cccc(CNc2ncnc3[nH]c(-c4ccc(CN5CCN(C)CC5)cc4)cc23)c1 [Example 107b, (3-Methoxy-benzyl)-{6-[4-(4-methyl-piperazin-1-ylmethyl)-phenyl]-7H-pyrrolo[2,3-d]pyrimidin-4-yl}-amine]"

# The next lines start with the compound.
row,Compound,melting point [°C]
1,"C[C@@H](Nc1ncnc2[nH]c(-c3ccc(CNC(=O)c4ccccn4)cc3)cc12)c1ccccc1 [Example 57, Pyridine-2-carboxylic acid 4-[4-((R)-1-phenyl-ethylamino)-7H-pyrrolo[2,3-d]pyrimidin-6-yl]-benzylamide]",221 to 223
2,"CCN(CC)CCC(=O)NCc1ccc(-c2cc3c(Nc4ccc(F)c(Cl)c4)ncnc3[nH]2)cc1 [Example 58, N-{4-[4-(3-Chloro-4-fluoro-phenylamino)-7H-pyrrolo[2,3-d]pyrimidin-6-yl]-benzyl}-3-diethylamino-propionamide]",229 to 232
3,"O=C(NCc1ccc(-c2cc3c(Nc4ccc(F)c(Cl)c4)ncnc3[nH]2)cc1)c1ccccn1 [Example 59, Pyridine-2-carboxylic acid 4-[4-(3-chloro-4-fluoro-phenylamino)-7H-pyrrolo[2,3-d]pyrimidin-6-yl]-benzylamide]",340 to 342
4,"O=C(CCN1CCCCC1)NCc1ccc(-c2cc3c(Nc4ccc(F)c(Cl)c4)ncnc3[nH]2)cc1 [Example 61, N-{4-[4-(3-Chloro-4-fluoro-phenylamino)-7H-pyrrolo[2,3-d]pyrimidin-6-yl]-benzyl}-3-piperidin-1-yl-propionamide]",230 to 235
5,"C[C@@H](Nc1ncnc2[nH]c(-c3ccc(CN(C)C)cc3)cc12)c1ccc(Cl)cc1 [Example 76, [(R)-1-(4-Chloro-phenyl)-ethyl]-[6-(4-dimethylaminomethyl-phenyl)-7H-pyrrolo[2,3-d]pyrimidin-4-yl]-amine]",273 to 274
6,"C[C@@H](Nc1ncnc2[nH]c(-c3ccc(CN(CCO)CCO)cc3)cc12)c1ccccc1 [Example 82, 2-((2-Hydroxy-ethyl)-{4-[4-((R)-1-phenyl-ethylamino)-7H-pyrrolo[2,3-d]pyrimidin-6-yl]-benzyl}-amino)-ethanol]",194 to 197
7,"Clc1cccc(CNc2ncnc3[nH]c(-c4ccc(CN5CCCCC5)cc4)cc23)c1 [Example 85, (3-Chloro-benzyl)-[6-(4-piperidin-1-ylmethyl-phenyl)-7H-pyrrolo[2,3-d]pyrimidin-4-yl]-amine]",234 to 235
8,"CCN(CC)Cc1ccc(-c2cc3c(NCc4cccc(Cl)c4)ncnc3[nH]2)cc1 [Example 87, (3-Chloro-benzyl)-[6-(4-diethylaminomethyl-phenyl)-7H-pyrrolo[2,3-d]pyrimidin-4-yl]-amine]",231 to 233
9,"CN(C)Cc1ccc(-c2cc3c(NCc4ccccc4Cl)ncnc3[nH]2)cc1 [Example 90, (2-Chloro-benzyl)-[6-(4-dimethylaminomethyl-phenyl)-7H-pyrrolo[2,3-d]pyrimidin-4-yl]-amine]",256 to 258
10,"Clc1ccccc1CNc1ncnc2[nH]c(-c3ccc(CN4CCCCC4)cc3)cc12 [Example 92, (2-Chloro-benzyl)-[6-(4-piperidin-1-ylmethyl-phenyl)-7H-pyrrolo[2,3-d]pyrimidin-4-yl]-amine]",262 to 264
11,"Clc1ccccc1CNc1ncnc2[nH]c(-c3ccc(CN4CCOCC4)cc3)cc12 [Example 93, (2-Chloro-benzyl)-[6-(4-morpholin-4-ylmethyl-phenyl)-7H-pyrrolo[2,3-d]pyrimidin-4-yl]-amine]",276 to 279
12,"Clc1ccccc1CNc1ncnc2[nH]c(-c3ccc(CN4CCCC4)cc3)cc12 [Example 95, (2-Chloro-benzyl)-[6-(4-pyrrolidin-1-ylmethyl-phenyl)-7H-pyrrolo[2,3-d]pyrimidin-4-yl]-amine]",264 to 265
13,"CCN(CC)Cc1ccc(-c2cc3c(NCc4ccccc4Cl)ncnc3[nH]2)cc1 [Example 96, (2-Chloro-benzyl)-[6-(4-diethylaminomethyl-phenyl)-7H-pyrrolo[2,3-d]pyrimidin-4-yl]-amine]",257 to 258
14,"CN(C)Cc1ccc(-c2cc3c(NCc4cc(Cl)ccc4Cl)ncnc3[nH]2)cc1 [Example 98, (2,5-Dichloro-benzyl)-[6-(4-dimethylaminomethyl-phenyl)-7H-pyrrolo[2,3-d]pyrimidin-4-yl]-amine]",254 to 257
15,"Clc1ccc(Cl)c(CNc2ncnc3[nH]c(-c4ccc(CN5CCOCC5)cc4)cc23)c1 [Example 99, (2,5-Dichloro-benzyl)-[6-(4-morpholin-4-ylmethyl-phenyl)-7H-pyrrolo[2,3-d]pyrimidin-4-yl]-amine]",272 to 274
16,"Clc1ccc(Cl)c(CNc2ncnc3[nH]c(-c4ccc(CN5CCCCC5)cc4)cc23)c1 [Example 100, (2,5-Dichloro-benzyl)-[6-(4-piperidin-1-ylmethyl-phenyl)-7H-pyrrolo[2,3-d]pyrimidin-4-yl]-amine]",258 to 260
17,"CCN(CC)Cc1ccc(-c2cc3c(NCc4cc(Cl)ccc4Cl)ncnc3[nH]2)cc1 [Example 101, (2,5-Dichloro-benzyl)-[6-(4-diethylaminomethyl-phenyl)-7H-pyrrolo[2,3-d]pyrimidin-4-yl]-amine]",255 to 257
18,"Clc1ccc(Cl)c(CNc2ncnc3[nH]c(-c4ccc(CN5CCCC5)cc4)cc23)c1 [Example 103, (2,5-Dichloro-benzyl)-[6-(4-pyrrolidin-1-ylmethyl-phenyl)-7H-pyrrolo[2,3-d]pyrimidin-4-yl]-amine]",266 to 268
